Here are results for one compound from patent US20100204248A1, “MEDICAMENTS AND METHODS FOR INHIBITION OF NON-OCULAR SCARRING” (Renovo Limited, priority 2007, published 2010).

One experiment deals with NR4A1 (Homo sapiens, UniProt P22736). Conditions: cited from earlier work.
A further experiment addresses NR4A3 (Homo sapiens, UniProt Q92570). The settings on record: cited from earlier work.
The subject of another experiment is excisional wounds. Nature of the experiment: Excisional wound healing model, 5 mm punch biopsy wounds harvested day 3. Type of experiment: in vivo, Sprague Dawley rats. The procedure: One hundred microlitres of 6-mercaptopurine at 1 ng, 10 ng or 1000 ng in phosphate buffered saline (PBS, pH 7.2; GIBCO BRL, Cat. #20012-019) containing 5% ethanol was injected intradermally at the wound sites. […] Separate groups of rats used as naïve controls and diluent controls. Naïve control animals were wounded without treatment, whilst diluent control animals were injected with 100 μl of the PBS/ethanol mixture prior to wounding. […] For microscopic assessment the scars were excised from the experimental rats (incorporating a small amount of surrounding normal tissue) and fixed in 10% (v/v) buffered formal saline. […]

Another experiment deals with NR4A2 (Homo sapiens, UniProt P43354). Conditions: cited from earlier work.
Sequence of NR4A2 (P43354 whole entry): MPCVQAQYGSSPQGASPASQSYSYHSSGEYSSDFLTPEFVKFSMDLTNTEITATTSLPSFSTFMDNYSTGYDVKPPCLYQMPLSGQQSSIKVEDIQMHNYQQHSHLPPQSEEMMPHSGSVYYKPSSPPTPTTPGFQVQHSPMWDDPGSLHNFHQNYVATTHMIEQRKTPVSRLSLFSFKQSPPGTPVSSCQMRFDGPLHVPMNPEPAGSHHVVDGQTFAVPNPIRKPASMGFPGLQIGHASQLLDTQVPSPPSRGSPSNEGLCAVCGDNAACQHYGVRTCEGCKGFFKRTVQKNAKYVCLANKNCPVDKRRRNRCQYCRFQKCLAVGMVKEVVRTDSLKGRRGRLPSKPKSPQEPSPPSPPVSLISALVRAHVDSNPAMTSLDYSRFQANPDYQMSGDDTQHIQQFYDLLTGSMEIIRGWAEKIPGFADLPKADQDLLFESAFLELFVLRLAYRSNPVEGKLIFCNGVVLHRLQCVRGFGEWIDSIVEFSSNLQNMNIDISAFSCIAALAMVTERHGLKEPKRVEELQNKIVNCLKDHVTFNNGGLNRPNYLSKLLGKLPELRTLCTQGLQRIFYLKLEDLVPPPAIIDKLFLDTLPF
Experiment [1] concerns full thickness cutaneous incisional wounds. Nature of the experiment: Scarring model: rat incisional wounds, macroscopic and microscopic VAS scar assessment at day 70. The experiment is classed as in vivo, Sprague Dawley rats. Conditions: for macroscopic appearance of scars (macroscopic VAS): before wounding and 1 day post-wounding; for macroscopic appearance of scars (macroscopic VAS) / microscopic appearance of scars (microscopic VAS): vs naïve control or diluent control. The procedure:
At day 0, male Sprague Dawley rats (200-250 g) were anaesthetised, shaved and wound sites were marked according to the Renovo rat incisional wounding template (2 wound model, 2×1 cm wounds, 5 cm from the base of the skull and 1 cm from the midline in each rat). One hundred microlitres of 6-mercaptopurine at 1 ng, 10 ng or 1000 ng in phosphate buffered saline (PBS, pH 7.2; GIBCO BRL, Cat. #20012-019) containing 5% ethanol was injected intradermally at the wound sites. […] Separate groups of rats used as naïve controls and diluent controls. Naïve control animals were wounded without treatment, whilst diluent control animals were injected with 100 μl of the PBS/ethanol mixture prior to wounding. All treated or diluent control wounds were re-injected again 1 day post-wounding with the appropriate treatment via injection of 50 μl to each of the two margins of the 1 cm wound. Wounds from the treated, naïve control and diluent control animals were all harvested at day 70 post-wounding. The wounds were photographed after wounding, prior to re-injection on day 1 and on day of harvest. The scars were assessed using standard macroscopic scar assessment using a visual analogue scale (VAS) consisting of a 0-10 cm line representing a scale, from left to right, of 0 (corresponding to normal skin) to 10 (indicative of a bad scar). For microscopic assessment the scars were excised from the experimental rats (incorporating a small amount of surrounding normal tissue) and fixed in 10% (v/v) buffered formal saline. The fixed tissue was then processed for wax histology, stained using Masson's trichrome, and scarring assessed using a microscopic visual analogue scale (VAS).

For the next experiment, the system named is incisional wounds. Nature of the experiment: Incisional wound healing model, wounds harvested three days post-wounding. The experiment is classed as in vivo, Sprague Dawley rats. On the procedure: At day 0, male Sprague Dawley rats (200-250 g) were anaesthetised, shaved and wound sites were marked according to the Renovo rat incisional wounding template (2 wound model, 2×1 cm wounds, 5 cm from the base of the skull and 1 cm from the midline in each rat). One hundred microlitres of 6-mercaptopurine at 1 ng, 10 ng or 1000 ng in phosphate buffered saline (PBS, pH 7.2; GIBCO BRL, Cat. #20012-019) containing 5% ethanol was injected intradermally at the wound sites. The intradermal injections caused the formation of a raised bleb, which was then immediately incised to form 1 cm long experimental wounds. Separate groups of rats used as naïve controls and diluent controls. Naïve control animals were wounded without treatment, whilst diluent control animals were injected with 100 μl of the PBS/ethanol mixture prior to wounding. All treated or diluent control wounds were re-injected again 1 day post-wounding with the appropriate treatment via injection of 50 μl to each of the two margins of the 1 cm wound. Wounds from the treated, naïve control and diluent control animals were all harvested at day 70 post-wounding.
Treated and control incisional wounds were created as described above, to allow assessment of the effects of NR4A agonists, such as 6-mercaptopurines, on wound healing. Wounds from the treated, naïve control and diluent control animals were all harvested at three days post-wounding.
The wounds were photographed after wounding, prior to re-injection on day one and on the day of harvest. Day three incisional or excisional wounds were excised from the experimental rats (incorporating a small amount of surrounding normal tissue). […] The fixed tissue was then processed for wax histology, stained using Masson's trichrome, and wound width assessed using image analysis software. Width of incisional wounds was measured at a point mid-way through the depth of the wound, whereas width of excisional wounds was measured at the top of the wounds.

The mark [2] stands for this setting: day 3, measured at top of wound, 1, 10 or 1000 ng/100 μl intradermal.
Setting [3] is: day 3, measured mid-way through wound depth, 1, 10 or 1000 ng/100 μl intradermal.

Sequence of NR4A3 (Q92570 whole entry): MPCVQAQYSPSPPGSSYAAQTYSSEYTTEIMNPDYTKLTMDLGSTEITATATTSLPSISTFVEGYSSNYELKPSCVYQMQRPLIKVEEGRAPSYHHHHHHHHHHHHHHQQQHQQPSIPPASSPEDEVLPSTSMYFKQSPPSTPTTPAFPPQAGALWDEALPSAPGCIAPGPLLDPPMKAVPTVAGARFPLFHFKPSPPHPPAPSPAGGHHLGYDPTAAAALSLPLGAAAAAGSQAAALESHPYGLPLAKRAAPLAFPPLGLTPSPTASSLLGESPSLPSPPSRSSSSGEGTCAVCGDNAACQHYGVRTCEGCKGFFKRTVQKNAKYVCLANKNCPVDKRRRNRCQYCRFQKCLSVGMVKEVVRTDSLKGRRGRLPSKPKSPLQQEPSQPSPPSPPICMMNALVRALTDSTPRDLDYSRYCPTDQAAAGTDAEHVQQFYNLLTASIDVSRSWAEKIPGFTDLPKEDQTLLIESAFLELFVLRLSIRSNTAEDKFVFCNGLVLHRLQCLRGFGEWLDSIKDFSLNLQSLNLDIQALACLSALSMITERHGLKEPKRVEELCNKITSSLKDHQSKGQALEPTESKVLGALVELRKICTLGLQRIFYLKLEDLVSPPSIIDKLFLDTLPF
Sequence of NR4A1 (P22736 whole entry): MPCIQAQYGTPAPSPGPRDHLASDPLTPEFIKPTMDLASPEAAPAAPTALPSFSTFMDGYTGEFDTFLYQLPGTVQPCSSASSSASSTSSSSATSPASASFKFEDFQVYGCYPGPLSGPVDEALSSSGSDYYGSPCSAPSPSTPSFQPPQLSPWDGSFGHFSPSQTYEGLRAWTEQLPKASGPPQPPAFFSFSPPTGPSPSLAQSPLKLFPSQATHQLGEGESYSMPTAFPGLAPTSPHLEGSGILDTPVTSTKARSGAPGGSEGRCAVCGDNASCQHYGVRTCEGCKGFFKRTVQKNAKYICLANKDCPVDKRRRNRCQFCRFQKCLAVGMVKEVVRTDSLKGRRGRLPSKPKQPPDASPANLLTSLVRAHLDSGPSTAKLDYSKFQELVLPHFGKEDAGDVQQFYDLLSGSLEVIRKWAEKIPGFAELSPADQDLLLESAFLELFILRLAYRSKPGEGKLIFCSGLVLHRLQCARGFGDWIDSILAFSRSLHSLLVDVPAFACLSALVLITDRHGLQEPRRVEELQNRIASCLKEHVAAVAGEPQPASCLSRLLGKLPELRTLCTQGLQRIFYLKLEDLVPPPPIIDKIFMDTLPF

Regarding `Sc1ncnc2nc[nH]c12` [6-mercaptopurine], the agonist activity result at NR4A1, at NR4A3 and on NR4A2 was “agonist” in each case. Besides, the “width of excisional wounds lower than naïve controls, significance” value in the experiment on excisional wounds (1 ng/100 μl, day 3, p<0.01 versus naïve control only (FIG. 5)) is “significantly so”. Also, the “width of excisional wounds compared to controls” value in the experiment on excisional wounds (setting [2]) is “not increased”. Also, the “width of excisional wounds compared to naïve controls” value in the experiment with excisional wounds (setting [2]) is recorded as “consistently lower”. Moreover, in the experiment with excisional wounds (three days after excision, vs diluent control and naïve control), the “percentage re-epithelialisation of excisional wounds” value is recorded as “trend towards increased re-epithelialisation”. The “macroscopic appearance of scars (macroscopic VAS)” value in experiment [1] (1 ng/100 μl intradermal), in experiment [1] (10 ng/100 μl intradermal) and in experiment [1] (1000 ng/100 μl intradermal) was “improved” in each case. The “microscopic appearance of scars (microscopic VAS)” value in experiment [1] (1 ng/100 μl intradermal), in experiment [1] (10 ng/100 μl intradermal) and in experiment [1] (1000 ng/100 μl intradermal) was “significantly improved” throughout. The “inhibition of scarring, microscopic appearance” value in experiment [1] (1 ng/100 μl, compared to both diluent and control wounds (p<0.01)) is given as “significantly inhibited scarring”; in experiment [1] (10 ng/100 μl, compared to diluent and naïve controls (p<0.05)), “significantly inhibited scarring”; in experiment [1] (1000 ng/100 μl, compared to diluent controls (p<0.05)), “significantly inhibited scarring”. Also, the “inhibition of scarring, macroscopic appearance of treated wounds” value in experiment [1] (1 ng/100 μl, p<0.05 as compared to diluent controls) is reported as “statistically significant inhibition of scarring”; in experiment [1] (1000 ng/100 μl, p<0.05 as compared to both diluent and naïve controls), “statistically significant inhibition of scarring”. Moreover, in the experiment on incisional wounds (setting [3]), the “width of incisional wounds compared to controls” value is on record as “not increased”. For the same compound, the “width of incisional wounds compared to naïve controls” value with incisional wounds (setting [3]) is recorded as “consistently lower”. Moreover, in the experiment on incisional wounds (three days after wounding, comparable with control wounds), the “re-epithelialisation of incisional wounds” value is “fully re-epithelialised”.
